The assay deals with Heidenhain Pouch Dog. As to the kind of experiment: Gastric antisecretory activity in the Heidenhain Pouch Dog. It counts as in vivo, dogs. The note with it: 95% confidence limits in parentheses; for ED50: Canis lupus familiaris. The method, then: Determination of Gastric Antisecretory […] in the Heidenhain Pouch Dog Prior to surgery, hematology and blood chemistry profiles are obtained and an assessment made as to the general health of selected female dogs. Dogs are vaccinated with Tissue […]-Moore) and housed in general animal quarters for four weeks' observation so incipient diseases may become apparent. Dogs are fasted with water ad libitum 24 hours prior to surgery. […] Subsequent anesthesia is maintained with methoxy- flurane (Pitman-Moore). A mid-line linea alba incision from xiphoid to umbilicus provides good exposure and ease of closure. The stomach is pulled up into the operative fields the greater curvature stretched out at multiple points and clamps placed along the selected line of incision. The pouch is made from the corpus of the stomach so that true parietal cell juice is obtained. About 30% of the corpus volume is resected. The cannula is made of light-weight, biologically-inert material such as nylon or Delrin with dimensions and attachments after DeVito and […] fJ. Appl. Physiol., 14, 138 (1959)]. Post operatively, dogs are medicated with antibiotics and an analgesic. They are allowed 2-3 months for recovery. Experiments are carried out in the following way: […] The dogs are placed in a sling and a saphenous vein cannulated for drug administration. Histamine as the base (100 μg/kg/hr) and chlorpheniramine maleate (0.25 mg/kg/hr) are infused continuously (in a volume of 6 mL/hr) with a Harvard infusion pump. Ninety minutes' infusion are allowed for the dogs to reach a steady state of acid output. At this time the drug or normal saline (control) is administered concomitantly with the secretagogue in a volume of 0.5 mL/kg over a 30 second period. When oral studies are to be carried out, the drug is administered via gastric gavage in a volume of 5 mL/kg. Infusion of the secretagogue is continued and 15 minute samples of the gastric juice are taken for 4.5 hours. Each sample is measured to the nearest 0.5 mL and titratable acidity is determined by titrating a 1 mL sample to pH 7.0 with 0.2N NaOH, using an Autoburet and an electrometric pH meter '(Radiometer). Titratable acid output is calculated in microequivalents by multiplying the volume in milliliters by the acid concentration in milliequivalents per liter. Results are expressed as percent inhibition relative to control readings. Dose response curves are constructed and ED50 values are calculated by regression analyses. From 3 to 5 dogs are used at each dose level and a minimum of three dosage levels are utilized for determination of a dose response curve.

Marks after values point to notes of the source that are not given here.

In general, ED50 refers to the dose that gives a 50% effect, or the effect in half of the subjects.

Consider `Nc1c(NCCCOc2cccc(CN3CCCCC3)c2)c(=O)c1=O` [Example 1], for which, where the note is “INTRAVENOUS”, the ED50 came to 0.024 µmol/kg and the “Potency Ratio [cimetidine = 1.0]” value is given as 87 (62-117)*. Besides, under “ORAL”, the ED50 was 0.16 µmol/kg and the “Potency Ratio [cimetidine = 1.0]” value is 25 (14-40).

Source of the values: patent publication EP0099122A2, “Compositions comprising pepstatin and an histamine H2-receptor antagonist having an enhanced antiulcer activity” (Bristol-Myers Company, priority 1982, dated 1984).
